# Assay results published in the supplement of paper PMC8967900.
# Columns and labels:
# Test in all cases: selective drug sensitivity score (sDSS, relative to normal bone marrow) (sDSS (score)); higher = more potent and effective on the cell line relative to normal bone marrow cells
# Conditions in all cases: 72 h
# [1] = tested on: HPB-ALL
# [2] = tested on: 697
# [3] = tested on: 380
# [4] = tested on: SEM cells
# [5] = tested on: MHH-CALL-4
# [6] = tested on: MOLT-14
# [7] = tested on: ALL-PO
# [8] = tested on: SUP-B15
# [9] = tested on: CCRF-HSB2
# [10] = tested on: NALL-1
# [11] = tested on: P30-OHKUBO
# [12] = tested on: KASUMI-10
# [13] = tested on: COG-LL-394h
# [14] = tested on: PF-382
# [15] = tested on: PEER
# [16] = tested on: COG-LL-319h
# [17] = tested on: LC4-1
# [18] = tested on: CCRF-CEM
# [19] = tested on: KARPAS-45
# [20] = tested on: JURKAT
# 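Further: ALL cell lines in 384-well plates, five doses spanning 10,000-fold, each plate scaled between vehicle and 100 µmol/L benzalkonium chloride controls, sDSS an adapted area-under-curve metric.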
SMILES,selective drug sensitivity score [1],selective drug sensitivity score [2],selective drug sensitivity score [3],selective drug sensitivity score [4],selective drug sensitivity score [5],selective drug sensitivity score [6],selective drug sensitivity score [7],selective drug sensitivity score [8],selective drug sensitivity score [9],selective drug sensitivity score [10],selective drug sensitivity score [11],selective drug sensitivity score [12],selective drug sensitivity score [13],selective drug sensitivity score [14],selective drug sensitivity score [15],selective drug sensitivity score [16],selective drug sensitivity score [17],selective drug sensitivity score [18],selective drug sensitivity score [19],selective drug sensitivity score [20]
COc1ccccc1S(=O)(=O)Nc1ccc2c(c1)CN(C)C(=O)N2 [PFI-1] (top concentration 30000 nM),1,3.7,0.1,4.7,2.7,4.4,2.7,8.5,1,-4.1,6.1,3.5,0.3,1.8,2.4,16.2,4.2,1.4,3.1,0.8
N#CCNC(=O)c1ccc(-c2ccnc(Nc3ccc(N4CCOCC4)cc3)n2)cc1 [Momelotinib] (top concentration 10000 nM),-8.52,2.68,-9.62,1.48,-1.12,-3.92,2.48,0.88,1.08,-6.72,1.58,0.98,-3.92,-3.42,1.08,0.28,-4.62,-2.52,0.18,-5.12
Sc1ncnc2nc[nH]c12 [Mercaptopurine] (top concentration 10000 nM),14.9,8,7.4,12.6,11.1,10.9,14.9,12.7,12.6,10.7,8.9,6.9,0.5,9.2,6.7,17.7,17.1,14.1,17.1,10.3
CCn1c(C(=O)N(C2CC2)C2CC2)cc2c3c(ncn3C)c(Nc3cc(C)n(C)n3)nc21 (top concentration 10000 nM),-3.16,-3.76,-4.36,0.94,-1.56,-4.36,8.14,-4.36,5.14,0.44,-3.66,-0.66,-4.36,-4.36,-4.36,-4.36,-4.36,-3.96,-3.06,-4.36
Cc1nc(-c2cn3c(n2)-c2ccc(-c4cnn(C(C)(C)C(N)=O)c4)cc2OCC3)n(C(C)C)n1 [Taselisib] (top concentration 1000 nM),-0.4,3.9,7.4,5.2,7.9,-4.3,13.2,-1.4,2.3,-1.7,12.2,1.7,-2.7,3,-4.3,4.1,-2.2,3.9,2,-2.6
O=C(Nc1cc(Oc2cc(F)c(NC(=O)C3(C(=O)Nc4ccc(F)cc4)CC3)cc2F)ccn1)C1CC1 [Altiratinib] (top concentration 10000 nM),3.54,4.24,-0.86,13.7,2.84,-0.36,8.94,6.64,8.14,4.14,1.84,8.84,1.84,0.64,9.24,2.84,-0.36,-0.16,2.74,0.84
Nc1ncn([C@@H]2O[C@H](CO)[C@@H](O)[C@H]2O)c(=O)n1 [Azacitidine] (top concentration 10000 nM),7.94,10.9,5.44,8.74,6.14,9.04,6.94,11.6,-0.56,4.14,6.54,3.64,-2.26,4.44,6.64,7.84,6.04,9.34,-1.16,4.04
CC(C)c1c(C(=O)Nc2ccccc2)c(-c2ccccc2)c(-c2ccc(F)cc2)n1CC[C@@H](O)C[C@@H](O)CC(=O)O [Atorvastatin] (top concentration 10000 nM),-1.5,-2.4,-3,0.4,0.1,-0.9,1.1,0.8,-2.1,0.1,-2.2,-1.8,-1.2,-1,2,-1,4.9,0.3,3.5,-3.7
CC1(C)CC[C@]2(NC(=O)C(C)(F)F)CC[C@]3(C)[C@H](C(=O)C=C4[C@@]5(C)C=C(C#N)C(=O)C(C)(C)[C@@H]5CC[C@]43C)[C@@H]2C1 [Omaveloxolone] (top concentration 10000 nM),3.58,4.78,10.9,4.88,1.28,1.58,3.08,8.38,3.78,3.98,0.68,2.58,0.48,1.08,4.38,10.5,7.38,0.78,1.68,0.88
Cn1cnc2c(F)c(Nc3ccc(Br)cc3F)c(C(=O)NOCCO)cc21 [Binimetinib] (top concentration 1000 nM),-2.22,-1.62,1.58,-2.22,4.98,4.38,3.08,11.2,-0.32,-2.22,-2.22,0.28,0.48,-1.82,0.58,2.98,2.18,1.38,-1.82,-2.02
CCN1C(=O)CNc2ncc(-c3ccc(-c4nc[nH]n4)nc3C)nc21 [CC-115] (top concentration 10000 nM),1.84,4.14,10.6,0.04,7.34,1.24,4.34,2.34,2.64,4.24,2.94,0.14,-2.06,2.14,2.34,11.7,4.54,4.24,1.34,1.24
COc1ccc(Cn2ccc3ccc(C(=O)NO)cc32)cc1 (top concentration 10000 nM),0.84,4.34,10.2,2.94,0.64,5.64,2.84,3.64,6.64,-0.86,2.24,3.14,0.94,1.84,2.24,8.04,4.54,3.34,2.94,2.84
CCCCc1nc2cc(/C=C/C(=O)NO)ccc2n1CCN(CC)CC [Pracinostat] (top concentration 10000 nM),6.88,7.68,13.2,5.28,6.28,6.18,5.58,5.98,5.88,3.18,5.68,6.18,0.18,3.38,3.98,10.1,6.18,4.68,9.78,2.48
Nc1nc(Cl)nc2c1ncn2[C@@H]1O[C@H](CO)[C@@H](O)[C@@H]1F [Clofarabine] (top concentration 10000 nM),-8.5,9.6,13.4,7,6.5,11.4,1.2,10.5,6.8,1.8,10.3,1,-27.4,1.8,-5.9,5.6,9.2,8.2,-22.6,1.9
CCN(CC)Cc1ccc2cc(COC(=O)Nc3ccc(C(=O)NO)cc3)ccc2c1 [Givinostat] (top concentration 1000 nM),6.3,4.8,6.9,4.4,3.4,6.8,3.9,8.1,4.5,-0.4,3.7,4.7,2.4,2.9,6.1,10.1,5.5,3.6,11.1,0.9
COc1cc2c(Oc3ccc(NC(=O)C4(C(=O)Nc5ccc(F)cc5)CC4)cc3F)ccnc2cc1OCCCN1CCOCC1 [Foretinib] (top concentration 1000 nM),3.34,2.24,-0.56,20.9,1.64,1.94,10.8,8.74,6.24,1.74,0.54,17.8,1.84,0.34,5.04,3.44,2.04,0.64,2.44,-4.36
CNC(=O)c1cc(Oc2ccc(NC(=O)Nc3ccc(Cl)c(C(F)(F)F)c3)cc2)ccn1 [Sorafenib] (top concentration 1000 nM),0.1,1.7,0,15.1,0,0,5.5,0,0,0,2.2,12.2,0,1.3,0.1,0,0,0,0.5,0.4
Cc1ccc(C(=O)Nc2ccc(Oc3cc4cnn(C)c4cc3-c3cn[nH]c3)c(F)c2)c(=O)n1-c1ccc(F)cc1 [Merestinib] (top concentration 1000 nM),-0.62,0.48,-0.62,19.8,-0.42,-0.62,15.2,-0.62,-0.22,8.28,0.88,14.8,-0.62,-0.62,-0.22,-0.62,-0.62,-0.62,-0.62,-0.62
